Measurements reported in ChEMBL document CHEMBL1127571, “S-(N-aryl-N-hydroxycarbamoyl)glutathione derivatives are tight-binding inhibitors of glyoxalase I and slow substrates for glyoxalase II” (J Med Chem, 1994).

Key:
[1] = test system: NC(CCC(=O)NC(CSC(=O)N(O)c1ccccc1)C(=O)NCC(=O)O)C(=O)O; conditions: Bos taurus
Description: Michaelis-Menten constant was tested for inhibitory activity against bovine liver glyoxalase II

[2] = Vm value of the compound; type: ADME

Vm [2]	Compound	Km [1]
–	Hydroxyacylglutathione hydrolase, mitochondrial (Homo sapiens) (from UniProt Q16775)	13 µM
1.5e-05	NC(CCC(=O)NC(CSC(=O)N(O)c1ccc(Cl)cc1)C(=O)NCC(=O)O)C(=O)O (centres undefined)	–
4.6e-06	NC(CCC(=O)NC(CSC(=O)N(O)c1ccccc1)C(=O)NCC(=O)O)C(=O)O (centres undefined)	–
2.1e-05	NC(CCC(=O)NC(CSC(=O)N(O)c1ccc(Br)cc1)C(=O)NCC(=O)O)C(=O)O (centres undefined)	–
